# Assay results taken from patent US6407103B2, “Indeno [1,2-c] pyrazol-4-ones and their uses” (Bristol-Myers Squibb Pharma Company, priority 1998, dated 2002).
# Counter-ions that a name gives are not always drawn.
row,Structure (SMILES),melting point [°C]
1,"O=C(Nc1cccc2c1C(=O)c1c-2n[nH]c1-c1ccc(C(=O)[C@]23CN[C@H](CN2)C3)s1)NN1CCOCC1 (as salt: TFA) [Example CLVI, 3-(5-(((1S,4S)-(+)-2,5-diazabicyclo[2.2.1]heptyl)carbonyl)-2-thienyl)-5-(morpholinocarbamoylamino)indeno [1,2-c]pyrazol-4-one]",> 300
2,"CN1C[C@@H]2C[C@@]1(C(=O)c1ccc(-c3[nH]nc4c3C(=O)c3c(NC(=O)NN5CCOCC5)cccc3-4)s1)CN2 (as salt: TFA) [Example CLVII, 3-(5-(((1S,4S)-(+)-2-methyl-2,5-diazabicyclo[2.2.1]heptyl)carbonyl)-2-thienyl)-5-(morpholinocarbamoylamino)indeno[1,2-c]pyrazol-4-one]",244
3,"CN(C)C1CCN(C(=O)c2ccc(-c3[nH]nc4c3C(=O)c3c(NC(=O)NN5CCOCC5)cccc3-4)s2)CC1 (as salt: TFA) [Example CLVIII, 3-(5-(4-(N,N-dimethylamino)piperidinocarbonyl)-2-thienyl)-5-(morpholinocarbamoylamino)indeno[1,2-c]pyrazol-4-one]",185
4,"O=C(Nc1cccc2c1C(=O)c1c-2n[nH]c1-c1ccc(C(=O)NC2CCCCC2)s1)NN1CCOCC1 (as salt: TFA) [Example CLXI, 3-(5-cyclohexylaminocarbonyl-2-thienyl)-5-(morpholinocarbamoylamino)indeno[1,2-c]pyrazol-4-one]",264
5,"O=C(Nc1cccc2c1C(=O)c1c-2n[nH]c1-c1ccc(C(=O)NC2CCNCC2)s1)NN1CCOCC1 (as salt: TFA) [Example CLXII, 3-(5-(4-piperidylaminocarbonyl)-2-thienyl)-5-(morpholinocarbamoylamino)indeno[1,2-c]pyrazol-4-one]",224
6,"CN(C)C1CCCN(C(=O)c2ccc(-c3[nH]nc4c3C(=O)c3c(NC(=O)NN5CCOCC5)cccc3-4)s2)C1 (stereo not shown) (as salt: TFA) [Example CLXV, 3-(5-(3-(N,N-dimethylamino)piperidinocarbonyl)-2-thienyl)-5-(morpholinocarbamoylamino)indeno[1,2-c]pyrazol-4-one]",> 300
7,"O=C(Nc1cccc2c1C(=O)c1c-2n[nH]c1-c1ccc(C(=O)NC2CCCNC2)s1)NN1CCOCC1 (stereo not shown) (as salt: TFA) [Example CLXVIII, 3-(5-((3-piperidyl)aminocarbonyl)-2-thienyl)-5-(morpholinocarbamoylamino)indeno[1,2-c]pyrazol-4-one]",> 300
8,"NC1CCCC(NC(=O)c2ccc(-c3[nH]nc4c3C(=O)c3c(NC(=O)NN5CCOCC5)cccc3-4)s2)C1 (stereo not shown) (as salt: TFA) [Example CLXX, 3-(5-((3-aminocyclohexyl)aminocarbonyl)-2-thienyl)-5-(morpholinocarbamoylamino)indeno[1,2-c]pyrazol-4-one]",> 300
9,"CC(C)(C)OC(=O)NC1CCCC(NC(=O)c2ccc(-c3[nH]nc4c3C(=O)c3c(NC(=O)NN5CCOCC5)cccc3-4)s2)C1 (stereo not shown) (as salt: TFA) [Example CLXXI, 3-(5-((3-(t-butoxycarbonylamino)cyclohexyl)aminocarbonyl)-2-thienyl)-5-(morpholinocarbamoylamino)indeno[1,2-c]pyrazol-4-one]",> 300
10,"CN(C)CC1CCCCN1C(=O)c1ccc(-c2[nH]nc3c2C(=O)c2c(NC(=O)NN4CCOCC4)cccc2-3)s1 (stereo not shown) (as salt: TFA) [Example CLXXII, 3-(5-(2-(N,N-dimethylaminomethyl)piperidinocarbonyl)-2-thienyl)-5-(morpholinocarbamoylamino)indeno[1,2-c]pyrazol-4-one]",> 300
11,"CCN(CC)CC1CCCCN1C(=O)c1ccc(-c2[nH]nc3c2C(=O)c2c(NC(=O)NN4CCOCC4)cccc2-3)s1 (stereo not shown) (as salt: TFA) [Example CLXXIII, 3-(5-(2-(N,N-diethylaminomethyl)piperidinocarbonyl)-2-thienyl)-5-(morpholinocarbamoylamino)indeno[1,2-c]pyrazol-4-one]",210
12,"O=C(Nc1cccc2c1C(=O)c1c-2n[nH]c1-c1ccc(C(=O)N2CCCC2)s1)NN1CCOCC1 (as salt: TFA) [Example CLXXIV, 3-(5-pyrrolidinocarbonyl-2-thienyl)-5-(morpholinocarbamoylamino)indeno[1,2-c]pyrazol-4-one]",> 300
13,"CN(C(=O)OC(C)(C)C)[C@H]1CCN(C(=O)c2ccc(-c3[nH]nc4c3C(=O)c3c(NC(=O)NN5CCOCC5)cccc3-4)s2)C1 (as salt: TFA) [Example CLXXIX, 3-(5-(3(S)-(N-methyl-t-butoxycarbonylamino)pyrrolidinocarbonyl)-2-thienyl)-5-(morpholinocarbamoylamino)indeno[1,2-c]pyrazol-4-one]",> 300
14,"NC1CCN(C(=O)c2ccc(-c3[nH]nc4c3C(=O)c3c(NC(=O)NN5CCOCC5)cccc3-4)s2)C1 (stereo not shown) (as salt: TFA) [Example CLXXV, 3-(5-(3-aminopyrrolidinocarbonyl)-2-thienyl)-5-(morpholinocarbamoylamino)indeno[1,2-c]pyrazol-4-one]",201
15,"CC(=O)N[C@H]1CCN(C(=O)c2ccc(-c3[nH]nc4c3C(=O)c3c(NC(=O)NN5CCOCC5)cccc3-4)s2)C1 (as salt: TFA) [Example CLXXVII, 3-(5-(3(S)-acetamidopyrrolidinocarbonyl)-2-thienyl)-5-(morpholinocarbamoylamino)indeno[1,2-c]pyrazol-4-one]",264
16,"CC(=O)N(C)[C@H]1CCN(C(=O)c2ccc(-c3[nH]nc4c3C(=O)c3c(NC(=O)NN5CCOCC5)cccc3-4)s2)C1 (as salt: TFA) [Example CLXXVIII, 3-(5-(3(S)-(N-methylacetamido)pyrrolidinocarbonyl)-2-thienyl)-5-(morpholinocarbamoylamino)indeno[1,2-c]pyrazol-4-one]",> 300
17,"CN(C)C1CCN(C(=O)c2ccc(-c3[nH]nc4c3C(=O)c3c(NC(=O)NN5CCOCC5)cccc3-4)s2)C1 (stereo not shown) (as salt: TFA) [Example CLXXX, 3-(5-(3-(N,N-dimethylamino)pyrrolidinocarbonyl)-2-thienyl)-5-(morpholinocarbamoylamino)indeno[1,2-c]pyrazol-4-one]",216
18,"CN(C)[C@@H]1CCN(C(=O)c2ccc(-c3[nH]nc4c3C(=O)c3c(NC(=O)NN5CCOCC5)cccc3-4)s2)C1 (as salt: TFA) [Example CLXXXI, 3-(5-(3(R)-(N,N-dimethylamino)pyrrolidinocarbonyl)-2-thienyl)-5-(morpholinocarbamoylamino)indeno[1,2-c]pyrazol-4-one]",265
19,"CN(C)[C@H]1CCN(C(=O)c2ccc(-c3[nH]nc4c3C(=O)c3c(NC(=O)NN5CCOCC5)cccc3-4)s2)C1 (as salt: TFA) [Example CLXXXII, 3-(5-(3(S)-(N,N-dimethylamino)pyrrolidinocarbonyl)-2-thienyl)-5-(morpholinocarbamoylamino)indeno[1,2-c]pyrazol-4-one]",264
20,"CN1CCC(CNC(=O)c2ccc(-c3[nH]nc4c3C(=O)c3c(NC(=O)NN5CCOCC5)cccc3-4)s2)C1 (stereo not shown) (as salt: TFA) [Example CLXXXIII, 3-(5-((1-methylpyrrolidin-3-yl)methylaminocarbonyl)-2-thienyl)-5-(morpholinocarbamoylamino)indeno[1,2-c]pyrazol-4-one]",151
21,"O=C(Nc1cccc2c1C(=O)c1c-2n[nH]c1-c1ccc(C(=O)N2CCC[C@@H]2CN2CCCC2)s1)NN1CCOCC1 (as salt: TFA) [Example CLXXXIV, 3-(5-(2(R)-(pyrrolidinomethyl)pyrrolidinocarbonyl)-2-thienyl)-5-(morpholinocarbamoylamino)indeno[1,2-c]pyrazol-4-one]",166
22,"O=C(Nc1cccc2c1C(=O)c1c-2n[nH]c1-c1ccc(C(=O)N2CCC[C@H]2CO)s1)NN1CCOCC1 (as salt: TFA) [Example CLXXXV, 3-(5-(2(S)-(hydroxymethyl)pyrrolidinocarbonyl)-2-thienyl)-5-(morpholinocarbamoylamino)indeno[1,2-c]pyrazol-4-one]",267
23,"COC[C@H]1CCCN1C(=O)c1ccc(-c2[nH]nc3c2C(=O)c2c(NC(=O)NN4CCOCC4)cccc2-3)s1 (as salt: TFA) [Example CLXXXVI, 3-(5-(2(R)-(methoxymethyl)pyrrolidinocarbonyl)-2-thienyl)-5-(morpholinocarbamoylamino)indeno[1,2-c]pyrazol-4-one]",262
24,"O=C(Nc1cccc2c1C(=O)c1c-2n[nH]c1-c1ccc(C(=O)N2CCC[C@H]2CNc2ccccc2)s1)NN1CCOCC1 (as salt: TFA) [Example CLXXXVII, 3-(5-(2(S)-(phenylaminomethyl)pyrrolidinocarbonyl)-2-thienyl)-5-(morpholinocarbamoylamino)indeno[1,2-c]pyrazol-4-one]",> 300
25,"COC[C@H]1CCCN1NC(=O)c1ccc(-c2[nH]nc3c2C(=O)c2c(NC(=O)NN4CCOCC4)cccc2-3)s1 (as salt: TFA) [Example CLXXXVIII, 3-(5-(2(R)-(methoxymethyl)pyrrolidinoaminocarbonyl)-2-thienyl)-5-(morpholinocarbamoylamino)indeno[1,2-c]pyrazol-4-one]",266
26,"CNc1ccc(NC(=O)c2ccc(-c3[nH]nc4c3C(=O)c3c(NC(=O)NN5CCOCC5)cccc3-4)s2)cc1 (as salt: TFA) [Example CXCVI, 3-(5-((4-methylaminophenyl)aminocarbonyl)-2-thienyl)-5-(morpholinocarbamoylamino)indeno[1,2-c]pyrazol-4-one]",230
27,"CC(=O)Nc1ccc(NC(=O)c2ccc(-c3[nH]nc4c3C(=O)c3c(NC(=O)NN5CCOCC5)cccc3-4)s2)cc1 (as salt: TFA) [Example CXCVII, 3-(5-((4-acetamidophenyl)aminocarbonyl)-2-thienyl)-5-(morpholinocarbamoylamino)indeno[1,2-c]pyrazol-4-one]",253
28,"CCN(CC)c1ccc(NC(=O)c2ccc(-c3[nH]nc4c3C(=O)c3c(NC(=O)NN5CCOCC5)cccc3-4)s2)cc1 (as salt: TFA) [Example CXCVIII, 3-(5-(4-(diethylamino)phenylaminocarbonyl)-2-thienyl)-5-(morpholinocarbamoylamino)indeno[1,2-c]pyrazol-4-one]",198
